Assay results taken from patent publication US20230114728A1 (Venatorx Pharmaceuticals, Inc., priority 2019, published 2023).
Values after ≈ are worked out from the molar mass of the structure shown.

Key:
[1] = molecular target: T1, E. coli K12 PBP3 (Escherichia coli, UniProt P0AD68); assay: biochemical; assay type: binding
T1 construct: made in house
Summary of the method: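 Fluorescence polarization (ex 490/em 520 nm) competition of inhibitors against Bocillin-FL at 0.1 μM, read up to 60 min. Final PBP levels: E. coli PBP3 1.5 μM; A. baumannii PBP2 2.5 μM, PBP3 0.2 μM in Tris pH 8.0/NaCl/glycerol/Tween 20; N. gonorrhoeae PBP2 […] in Hepes pH 8.0/NaCl/glycerol. EC50 = concentration halving PBP-bound Bocillin-FL.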

[2] = system: A. baumannii ATCC 19606; assay: Broth microdilution MIC in CAMHB; assay type: cell-based; settings: Acinetobacter baumannii, ATCC19606; MHB; read-out: Minimum Inhibitory Concentration, A. baumannii ATCC 19606
Summary of the method: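 Per CLSI broth microdilution, colonies were grown 3-5 h at 37° C in cation-adjusted Mueller Hinton broth, then diluted to a starting inoculum of 2-8×10^5 CFU/mL against 2-fold serial compound dilutions. Plates were incubated 16-20 h at 37° C, and MIC was read visually as the lowest concentration with no growth.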

[3] = system: E. coli 901C; assay: Broth microdilution MIC in CAMHB; assay type: cell-based; settings: Escherichia coli; E. coli 901C (hyper-permeable); MHB; read-out: Minimum Inhibitory Concentration, E. coli 901C
Summary of the method: (§1)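 Colonies from cation-adjusted Mueller Hinton agar are grown in broth (3-5 h, 37° C), adjusted by OD600, and added at 2-8×10^5 CFU/mL to 2-fold compound dilutions. After 16-20 h at 37° C, the lowest concentration without growth is taken as MIC.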

[4] = system: E. coli AG100; assay: Broth microdilution MIC in CAMHB; assay type: cell-based; settings: Escherichia coli; E. coli AG100 (wild-type parent); MHB; read-out: Minimum Inhibitory Concentration, E. coli AG100
Summary of the method: as §1

[5] = system: E. coli ATCC 25922; assay: Broth microdilution MIC in CAMHB; assay type: cell-based; settings: Escherichia coli, ATCC25922; E. coli ATCC 25922; MHB; read-out: Minimum Inhibitory Concentration, E. coli 25922
Summary of the method: as §1

[6] = system: E. coli D22; assay: Broth microdilution MIC in CAMHB; assay type: cell-based; settings: Escherichia coli; E. coli D22 (hyper-permeable); MHB; read-out: Minimum Inhibitory Concentration, E. coli D22
Summary of the method: as §1

[7] = system: K. pneumoniae 848844 producing SHV-11 and KPC-2; assay: Broth microdilution MIC in CAMHB; assay type: cell-based; settings: Klebsiella pneumoniae, read-out: Minimum Inhibitory Concentration, K. pneumoniae 848844
Summary of the method: as §1

[8] = system: K. pneumoniae UMM producing SHV-5 and KPC-2; assay: Broth microdilution MIC in CAMHB; assay type: cell-based; settings: Klebsiella pneumoniae, read-out: Minimum Inhibitory Concentration, K. pneumoniae UMM
Summary of the method: as §1

[9] = system: P. aeruginosa (ΔmexAB-oprM); assay: Broth microdilution MIC in CAMHB; assay type: cell-based; settings: Pseudomonas aeruginosa, read-out: Minimum Inhibitory Concentration, P. aeruginosa ΔmexAB-OprM
Summary of the method: as §1

T1 sequence (P0AD68 1-577): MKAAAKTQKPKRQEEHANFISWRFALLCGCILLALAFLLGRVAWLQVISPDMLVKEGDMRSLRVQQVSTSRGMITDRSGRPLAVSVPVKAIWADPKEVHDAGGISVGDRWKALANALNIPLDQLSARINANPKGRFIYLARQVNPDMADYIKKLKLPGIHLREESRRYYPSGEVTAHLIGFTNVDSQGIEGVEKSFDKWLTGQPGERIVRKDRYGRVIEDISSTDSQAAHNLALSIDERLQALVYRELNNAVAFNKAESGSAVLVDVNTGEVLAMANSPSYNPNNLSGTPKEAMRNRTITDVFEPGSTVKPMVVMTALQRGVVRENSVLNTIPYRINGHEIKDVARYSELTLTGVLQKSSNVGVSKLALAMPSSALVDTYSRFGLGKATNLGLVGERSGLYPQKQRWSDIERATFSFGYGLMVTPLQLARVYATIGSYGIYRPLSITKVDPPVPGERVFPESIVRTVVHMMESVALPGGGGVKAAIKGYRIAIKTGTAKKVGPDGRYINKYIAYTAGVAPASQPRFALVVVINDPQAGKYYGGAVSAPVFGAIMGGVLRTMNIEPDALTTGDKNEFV

Compound	EC50 [1]	MIC [2]	MIC [3]	MIC [4]	MIC [5]	MIC [6]	MIC [7]	MIC [8]	MIC [9]
O=C(Nc1ccccc1)NC(C(=O)N[C@H]1Cc2ccc(F)c(C(=O)O)c2OB1O)c1ncc(O)cc1F (stereo partly drawn) [Example 49, (3R)-7-fluoro-3-(2-(3-fluoro-5-hydroxypyridin-2-yl)-2-(3-phenylureido)acetamido)-2-hydroxy-3,4-dihydro-2H-benzo[e][1,2]oxaborinine-8-carboxylic acid]	30 to 500 µM	> 128 µg/mL	32 to 64 µg/mL (≈ 62.5 to 125 µM)	> 128 µg/mL	> 128 µg/mL	8 to 16 µg/mL (≈ 15.6 to 31.2 µM)	> 128 µg/mL	> 128 µg/mL	32 to 64 µg/mL (≈ 62.5 to 125 µM)
NCCN1CCN(C(=O)N[C@H](C(=O)N[C@H]2Cc3cccc(C(=O)O)c3OB2O)c2ccc(C(=O)O)cc2)C(=O)C1=O (single isomer, unassigned) [Example 83]	30 to 500 µM	> 128 µg/mL	< 0.25 µg/mL	32 to 64 µg/mL (≈ 56.4 to 113 µM)	32 to 64 µg/mL (≈ 56.4 to 113 µM)	2 to 4 µg/mL (≈ 3.53 to 7.05 µM)	> 128 µg/mL	32 to 64 µg/mL (≈ 56.4 to 113 µM)	8 to 16 µg/mL (≈ 14.1 to 28.2 µM)
CCN1CCN(C(=O)NC(C(=O)N[C@H]2Cc3cccc(C(=O)O)c3OB2O)c2ccc(O)c(NS(C)(=O)=O)c2)C(=O)C1=O (stereo partly drawn) [Example 22, (3R)-3-(2-(4-ethyl-2,3-dioxopiperazine-1-carboxamido)-2-(4-hydroxy-3-(methylsulfonamido)phenyl)acetamido)-2-hydroxy-3,4-dihydro-2H-benzo[e][1,2]oxaborinine-8-carboxylic acid]	< 30 µM	> 128 µg/mL	< 0.25 µg/mL	32 to 64 µg/mL (≈ 51.8 to 104 µM)	32 to 64 µg/mL (≈ 51.8 to 104 µM)	2 to 4 µg/mL (≈ 3.24 to 6.48 µM)	> 128 µg/mL	32 to 64 µg/mL (≈ 51.8 to 104 µM)	8 to 16 µg/mL (≈ 13 to 25.9 µM)
NCCN1CCN(C(=O)N[C@H](C(=O)N[C@H]2Cc3cccc(C(=O)O)c3OB2O)c2ccc(O)cc2Cl)C(=O)C1=O (single isomer, unassigned) [Example 85]	30 to 500 µM	> 128 µg/mL	8 to 16 µg/mL (≈ 13.9 to 27.9 µM)	> 128 µg/mL	> 128 µg/mL	32 to 64 µg/mL (≈ 55.8 to 112 µM)	> 128 µg/mL	> 128 µg/mL	32 to 64 µg/mL (≈ 55.8 to 112 µM)
CCN1CCN(C(=O)NC(C(=O)N[C@H]2Cc3ccc(SCc4ccc(O)cc4)c(C(=O)O)c3OB2O)c2csc(N)n2)C(=O)C1=O (stereo partly drawn) [Example 55, (3R)-3-(2-(2-aminothiazol-4-yl)-2-(4-ethyl-2,3-dioxopiperazine-1-carboxamido)acetamido)-2-hydroxy-7-((4-hydroxybenzyl)thio)-3,4-dihydro-2H-benzo[e][1,2]oxaborinine-8-carboxylic acid]	30 to 500 µM	> 128 µg/mL	0.5 to 1 µg/mL (≈ 0.748 to 1.5 µM)	> 128 µg/mL	32 to 64 µg/mL (≈ 47.9 to 95.7 µM)	8 to 16 µg/mL (≈ 12 to 23.9 µM)	> 128 µg/mL	> 128 µg/mL	32 to 64 µg/mL (≈ 47.9 to 95.7 µM)
CCN1CCN(C(=O)N[C@@H](C(=O)N[C@H]2Cc3cccc(C(=O)O)c3OB2O)c2cc(Cl)c(O)cc2Cl)C(=O)C1=O (single isomer, unassigned) [Example 91]	< 30 µM	> 128 µg/mL	< 0.25 µg/mL	8 to 16 µg/mL (≈ 13.5 to 27 µM)	32 to 64 µg/mL (≈ 53.9 to 108 µM)	2 to 4 µg/mL (≈ 3.37 to 6.74 µM)	> 128 µg/mL	32 to 64 µg/mL (≈ 53.9 to 108 µM)	32 to 64 µg/mL (≈ 53.9 to 108 µM)
NC(=O)c1ccc(C(NC(=O)N2CCN(CCF)C(=O)C2=O)C(=O)N[C@H]2Cc3cccc(C(=O)O)c3OB2O)cc1O (stereo partly drawn) [Example 46, (3R)-3-(2-(4-carbamoyl-3-hydroxyphenyl)-2-(4-(2-fluoroethyl)-2,3-dioxopiperazine-1-carboxamido)acetamido)-2-hydroxy-3,4-dihydro-2H-benzo[e][1,2]oxaborinine-8-carboxylic acid]	< 30 µM	> 128 µg/mL	2 to 4 µg/mL (≈ 3.42 to 6.83 µM)	32 to 64 µg/mL (≈ 54.7 to 109 µM)	32 to 64 µg/mL (≈ 54.7 to 109 µM)	< 0.25 µg/mL	> 128 µg/mL	32 to 64 µg/mL (≈ 54.7 to 109 µM)	2 to 4 µg/mL (≈ 3.42 to 6.83 µM)
